Laboratory results: patent US6974814B2, “Neuropharmacological treatment of sleep-related breathing disorders” (The Board of Trustees of the University of Illinois, priority 1999, dated 2005)

Assays:
[1] = system: sleep apnea; settings: cited from earlier work; for effect in individuals with central apnea: central apneas
[2] = system: apnea; settings: animal model of sleep apnea; cited from earlier work
[3] = system: spontaneous apneas
Experimental: Adult, male Sprague-Dawley rats (Sasco-King, Wilmington, Mass.; usually 8 per test group; 300 g) are maintained on a 12-hour light (08:00–20:00 hour)/12-hour dark (20:00–08:00 hour) cycle for one week, housed in individual cages and given ad libitum access to food and water. Following the one week of acclimatization, animals are subjected to the following surgical procedures.
Acclimatized animals are anesthetized for the implantation of cortical electrodes for electroencephalogram (EEG) recording and neck muscle electrodes for electromyogram (EMG) recording using a mixture of ketamine (Vedco, Inc., St. Joseph, Mo.; 100 mg/ml) and acetylpromazine (Vedco, Inc., St. Joseph, Mo.; 10 mg/ml; 4:1, volume/volume) at a volume of 1 ml/kg body weight. The surface of the skull is exposed surgically and cleaned with a 20% solution of hydrogen peroxide followed by a solution of 95% isopropyl alcohol. Next, a dental preparation of sodium fluoride (Flura-GEL®, Saslow Dental, Mt. Prospect, Ill.) is applied to harden the skull above the parietal cortex and allowed to remain in place for 5 minutes. The fluoride mixture is then removed from the skull above the parietal cortex. The EEG electrodes consisting of four stainless steel machine screws, having leads attached thereto, are threaded into the skull to rest on the dura over the parietal cortex. A thin layer of Justi® resin cement (Saslow Dental, Mt. Prospect, Ill.) is applied to cover the screw heads (of screws implanted in the skull) and surrounding skull to further promote the adhesion of the implant. EMG electrodes consisting of two ball-shaped wires are inserted into the bilateral-neck musculature. All leads (i.e., EEG and EMG leads) are soldered to a miniature connector (39F1401, Newark Electronics, Schaumburg, Ill.). Lastly, the entire assembly is fixed to the skull with dental cement.
After surgery, all animals are allowed to recover for one week before being subjected to another surgery that involved implantation of a radiotelemetry transmitter (TA11-PXT, Data Sciences International, St. Paul, Minn.) for monitoring blood pressure (BP) and heart period (HP), estimated as pulse interval. After the animals are anesthetized (as described above), the hair from the subxiphoid space to the pelvis is removed. The entire area is scrubbed with iodine and rinsed with alcohol and saline. A 4–6 cm midline abdominal incision is made to allow good visualization of the area from the bifurcation of the aorta to the renal arteries. A retractor is used to expose the contents of the abdomen and the intestine is held back using saline moistened gauze sponges. […]
Physiological parameters (see below) from each animal are recorded on numerous occasions in random order, with recordings for an individual animal separated by at least 3 days.

[4] = system: intertrigeminal region of the brainstem; settings: administration into the brainstem; cited from earlier work
[5] = individuals with obstructive sleep apnea

## medroxyprogesterone
[1]
  effect in individuals with obstructive sleep apnea (OSAS): no consistent benefit

## Nc1ncnc2c1ncn2[C@@H]1O[C@H](CO)[C@@H](O)[C@H]1O [adenosine]
[2]
  effect on apnea: somewhat effective in reducing apnea

## Cn1c(=O)c2[nH]cnc2n(C)c1=O [theophylline]
[1]
  effect in individuals with central apnea: may benefit
  effect in individuals with obstructive sleep apnea (OSAS): of no use

## Nc1nc2ccc(OC(F)(F)F)cc2s1 [riluzole]
[3]; NREM sleep, 4.0 mg/kg intraperitoneal 15 min before 6 h recording, vs saline, p=0.05
  average decrease in apnea expression (apneas per hour of NREM sleep): 31%
[3]; NREM sleep, 4.0 mg/kg intraperitoneal, vs saline
  animals with a decrease in apnea expression: 5 of 7
[3]; REM sleep, 4.0 mg/kg intraperitoneal 15 min before 6 h recording, vs saline, p=0.11
  average decrease in apnea expression (apneas per hour of REM sleep): 27%
[3]; both NREM and REM sleep
  overall effect on production of spontaneous sleep apneas: physiologically significant decrease

## CC(=O)Nc1nnc(S(N)(=O)=O)s1 [acetazolamide]
[1]
  effect in individuals with central apnea: variable improvement
  effect in individuals with obstructive sleep apnea (OSAS): increase in obstructive apneas

## C=CCN1CC[C@]23c4c5ccc(O)c4O[C@H]2C(=O)CC[C@@]3(O)[C@H]1C5 [naloxone]
[1]
  effect in individuals with obstructive sleep apnea (OSAS): only slightly helpful

## CNCCCC1c2ccccc2C=Cc2ccccc21 [Protriptyline]
[1]
  effect in individuals with obstructive sleep apnea (OSAS): variable results
[1]; several small trials in OSAS
  side effects: frequent and significant side effects

## N[C@@H](CCC(=O)O)C(=O)O [glutamate]
[4]
  effect on breathing (reflex apneas): provoked reflex apneas

## CCN1CC(CCN2CCOCC2)C(c2ccccc2)(c2ccccc2)C1=O (stereo not shown) [doxapram]
[1]; [5]
  average arterial oxygen saturation: did not alter
  length of apneas: decrease the length of apneas
